Drawing on patent US20090131468A1, “Bis-(Sulfonylamino) Derivatives in Therapy 065” (AstraZeneca AB, priority 2007, published 2009), this text covers IC50 for 35 compounds.

The assay has as its target T1, human mPGES-1 (Homo sapiens, UniProt O14684).
T1 sequence (O14684 1-152): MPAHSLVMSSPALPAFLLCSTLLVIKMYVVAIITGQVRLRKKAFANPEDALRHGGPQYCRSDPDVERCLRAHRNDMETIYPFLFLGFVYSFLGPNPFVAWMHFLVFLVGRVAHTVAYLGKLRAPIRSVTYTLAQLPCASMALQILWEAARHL
Kind of assay: Microsomal prostaglandin E synthase biochemical assay. Particulars: microsome preparation containing human mPGES-1; PGH2 10.8 μM, GSH 2.5 mM, pH 6.8; PGE2 quantified by HTRF; average of at least n=2. The procedure:
Compounds were tested as inhibitors of microsomal prostaglandin E synthase activity in microsomal prostaglandin E synthase assays and whole cell assays. These assays measure prostaglandin E2 (PGE2) synthesis which is taken as a measure of prostaglandin E synthase activity. Microsomal prostaglandin E synthase biochemical assays used microsomal prostaglandin E synthase-1 in microsomal preparations. The source of the microsomes can be for example interleukin-1β-stimulated human A549 cells (which express human mPGES-1) or Sf9 cells transfected with plasmids encoding human mPGES-1 cDNA.
A solution of test compound was added to a diluted microsome preparation containing human mPGES-1 and pre-incubated for 15 minutes in potassium phosphate buffer pH 6.8 with cofactor glutathione (GSH). Corresponding solutions without test compound were used as positive controls, and corresponding solutions without test compound and without microsomes were used as negative controls. The enzymatic reaction was then started by addition of the substrate PGH2 in an organic solution (dry acetonitrile).
The reaction was stopped after one minute by adding an acidic solution (pH 1.9) of ferric chloride and citrate (final concentrations 7 mM and 47 mM respectively), by which the PGH2 was sequestered (the PGH2 is reduced to mainly 12-hydroxy heptadecatrineoic acid (12-HHT) which is not detected by the subsequent PGE2 detection step). The resulting solution was then pH neutralized by addition of potassium phosphate buffer, prior to diluting an aliquot of the resulting solution in a weak potassium phosphate buffer (50 mM, pH 6.8) containing 0.2% BSA (w/v). […] The PGE2 formed was quantified by use of a commercial HTRF based kit (catalogue #62PG2PEC or #62P2APEC from Cisbio International). 100% activity was defined as the PGE2 production in positive controls subtracted by the PGE2 production in the negative controls. IC50 values were then determined using standard procedures.
On the technique in general: Time-resolved FRET reads energy transfer from a long-lived donor to a nearby acceptor.

Structures are written as SMILES.

As usually defined, the IC50 is the concentration that gives 50% inhibition. Lower therefore signals greater potency. The compound `CCCc1c(C(=O)NS(=O)(=O)c2ccccc2S(N)(=O)=O)cnn1-c1cc(Cl)cc(Cl)c1` [Example 38, 1-(3,5-Dichlorophenyl)-5-propyl-N-(2-sulfamoylphenyl)sulfonyl-pyrazole-4-carboxamide] returned an IC50 of 1500 nM. `NS(=O)(=O)c1ccccc1S(=O)(=O)NC(=O)c1sc2cc(Cl)ccc2c1Cl` [Example 39, 3,6-Dichloro-N-(2-sulfamoylphenyl)sulfonyl-benzothiophene-2-carboxamide] gave an IC50 of 82 nM. Under `NS(=O)(=O)c1ccccc1S(=O)(=O)NC(=O)c1csc2ccccc12` [Example 40, N-(2-Sulfamoylphenyl)sulfonylbenzothiophene-3-carboxamide] stands 2200 nM. In the case of `CCOC(=O)c1ccc(-c2ccc(C(=O)NS(=O)(=O)c3ccccc3S(N)(=O)=O)o2)cc1` [Example 41, Ethyl 4-[5-[(2-Sulfamoylphenyl)sulfonylcarbamoyl]-2-furyl]benzoate], the IC50 stood at 5400 nM. Compound `Cc1nc(-c2cccc(Cl)c2)sc1C(=O)NS(=O)(=O)c1ccccc1S(N)(=O)=O` [Example 42, 2-(3-Chlorophenyl)-4-methyl-N-(2-sulfamoylphenyl)sulfonyl-1,3-thiazole-5-carboxamide] gave a half-maximal inhibitory concentration (IC50) of 110 nM. In turn, `CC(C)(C)C#Cc1ccc(C(=O)NS(=O)(=O)c2ccccc2S(N)(=O)=O)cc1` [Example 43, 4-(3,3-Dimethylbut-1-ynyl)-N-(2-sulfamoylphenylsulfonyl)benzamide] had a half-inhibitory concentration (IC50) of 28 nM. Under `CC(C)(O)C#Cc1ccc(C(=O)NS(=O)(=O)c2ccccc2S(N)(=O)=O)cc1` [Example 44, 4-(3-Hydroxy-3-methylbut-1-ynyl)-N-(2-sulfamoylphenylsulfonyl)benzamide] stands 240 nM; under `Cc1cc(C(=O)NS(=O)(=O)c2ccccc2S(N)(=O)=O)ccc1-c1cc2ccccc2o1` [Example 45, 4-(Benzofuran-2-yl)-3-methyl-N-(2-sulfamoylphenylsulfonyl)benzamide], 5.5 nM. Under `Cc1cc(-c2cc3ccccc3o2)ccc1C(=O)NS(=O)(=O)c1ccccc1S(N)(=O)=O` [Example 46, 4-(Benzofuran-2-yl)-2-methyl-N-(2-sulfamoylphenylsulfonyl)benzamide] stands 46 nM; under `COc1cc(C(=O)NS(=O)(=O)c2ccccc2S(N)(=O)=O)cc(OC)c1-c1cc2ccccc2o1` [Example 47, 4-(Benzofuran-2-yl)-3,5-dimethoxy-N-(2-sulfamoylphenylsulfonyl)benzamide], 140 nM; under `COc1cc(-c2cc3ccccc3o2)ccc1C(=O)NS(=O)(=O)c1ccccc1S(N)(=O)=O` [Example 48, 4-(Benzofuran-2-yl)-2-methoxy-N-(2-sulfamoylphenylsulfonyl)benzamide], 150 nM. In the case of `NS(=O)(=O)c1ccccc1S(=O)(=O)NC(=O)c1ccc(-c2cc3ccccc3o2)cc1O` [Example 49, 4-(Benzofuran-2-yl)-2-hydroxy-N-(2-sulfamoylphenylsulfonyl)benzamide], the IC50 was 8.1 nM. Compared with the last compound, the IC50 is about 19-fold lower. To `NS(=O)(=O)c1ccccc1S(=O)(=O)NC(=O)c1ccc(Br)cc1O` [Example 49a, 4-Bromo-2-hydroxy-N-(2-sulfamoylphenylsulfonyl)benzamide] belongs 540 nM. To `COc1cc(C(=O)NS(=O)(=O)c2ccccc2S(N)(=O)=O)ccc1-c1cc2ccccc2o1` [Example 50, 4-(Benzofuran-2-yl)-3-methoxy-N-(2-sulfamoylphenylsulfonyl)benzamide] belongs 3.2 nM. The compound `NS(=O)(=O)c1ccccc1S(=O)(=O)NC(=O)c1ccc(-c2cc3ccccc3o2)c(O)c1` [Example 51, 4-(Benzofuran-2-yl)-3-hydroxy-N-(2-sulfamoylphenylsulfonyl)benzamide] came in with an IC50 of 3.4 nM. For the compound `Cc1cc(-c2cc3ccccc3o2)cc(C)c1C(=O)NS(=O)(=O)c1ccccc1S(N)(=O)=O` [Example 52, 4-(Benzofuran-2-yl)-2,6-dimethyl-N-(2-sulfamoylphenylsulfonyl)benzamide], the half-inhibitory concentration (IC50) was determined as 450 nM. This IC50 is about 130-fold higher than that of the compound before. To `COCC#Cc1ccc(C(=O)NS(=O)(=O)c2ccccc2S(N)(=O)=O)cc1` [Example 53, 4-(3-Methoxyprop-1-ynyl)-N-(2-sulfamoylphenylsulfonyl)benzamide] belongs 1600 nM; to `C=C(C)C#Cc1ccc(C(=O)NS(=O)(=O)c2ccccc2S(N)(=O)=O)cc1` [Example 54, 4-(3-Methylbut-3-en-1-ynyl)-N-(2-sulfamoylphenylsulfonyl)benzamide], 62 nM; to `NS(=O)(=O)c1ccccc1S(=O)(=O)NC(=O)c1ccc(C#Cc2ccccc2)nc1` [Example 55, 6-(Phenylethynyl)-N-(2-sulfamoylphenylsulfonyl)nicotinamide], 120 nM. Under `CCC(O)(C#Cc1ccc(C(=O)NS(=O)(=O)c2ccccc2S(N)(=O)=O)cc1)CC` [Example 56, 4-(3-Ethyl-3-hydroxypent-1-ynyl)-N-(2-sulfamoylphenylsulfonyl)benzamide] stands 2300 nM; under `CCC(C)(O)C#Cc1ccc(C(=O)NS(=O)(=O)c2ccccc2S(N)(=O)=O)cc1` (centres unmarked) [Example 57, 4-(3-Hydroxy-3-methylpent-1-ynyl)-N-(2-sulfamoylphenylsulfonyl)benzamide], 8800 nM. Under `NS(=O)(=O)c1ccccc1S(=O)(=O)NC(=O)c1ccc(C#CC2(O)CCCC2)cc1` [Example 58, 4-((1-Hydroxycyclopentyl)ethynyl)-N-(2-sulfamoylphenylsulfonyl)benzamide] stands 1900 nM.

Consider `CC(C)(O)C#Cc1cccc(C(=O)NS(=O)(=O)c2ccccc2S(N)(=O)=O)c1` [Example 59, 3-(3-Hydroxy-3-methylbut-1-ynyl)-N-(2-sulfamoylphenylsulfonyl)benzamide], for which the IC50 was determined as 56 nM.

Regarding `CC(C)(C)C#Cc1cccc(C(=O)NS(=O)(=O)c2ccccc2S(N)(=O)=O)c1` [Example 60, 3-(3,3-Dimethylbut-1-ynyl)-N-(2-sulfamoylphenylsulfonyl)benzamide], the half-maximal inhibitory concentration (IC50) worked out at 270 nM. This IC50 lies about 4.8-fold higher than the previous one. To `CC(C)(C)C#Cc1ccc(C(=O)NS(=O)(=O)c2ccccc2S(N)(=O)=O)c2ccccc12` [Example 61, 4-(3,3-Dimethylbut-1-ynyl)-N-(2-sulfamoylphenylsulfonyl)-1-naphthamide] belongs 99 nM.

As to `NS(=O)(=O)c1ccccc1S(=O)(=O)NC(=O)c1ccc(-c2cc3ccccc3o2)c2ccccc12` [Example 62, 4-(Benzofuran-2-yl)-N-(2-sulfamoylphenylsulfonyl)-1-naphthamide], half-maximal inhibition (IC50) required 20 nM. To `Cc1nc(-c2cc3ccccc3o2)sc1C(=O)NS(=O)(=O)c1ccccc1S(N)(=O)=O` [Example 63, 2-(Benzofuran-2-yl)-4-methyl-N-(2-sulfamoylphenylsulfonyl)thiazole-5-carboxamide] belongs 96 nM; to `CC(C)(O)C#Cc1cccc(-c2ccccc2C(=O)NS(=O)(=O)c2ccccc2S(N)(=O)=O)c1` [Example 64, 3′-(3-Hydroxy-3-methylbut-1-ynyl)-N-(2-sulfamoylphenylsulfonyl)biphenyl-2-carboxamide], 6200 nM; to `NS(=O)(=O)c1ccccc1S(=O)(=O)NC(=O)c1ccc(C#CC2CCCC2)cc1` [Example 65, 4-(Cyclopentylethynyl)-N-(2-sulfamoylphenylsulfonyl)benzamide], 14 nM. To `NS(=O)(=O)c1ccccc1S(=O)(=O)NC(=O)c1cccc(C#CC2CCCC2)c1` [Example 66, 3-(Cyclopentylethynyl)-N-(2-sulfamoylphenylsulfonyl)benzamide] belongs 220 nM; to `Cc1cc(C#CC2CCCC2)ccc1C(=O)NS(=O)(=O)c1ccccc1S(N)(=O)=O` [Example 67, 4-(Cyclopentylethynyl)-2-methyl-N-(2-sulfamoylphenylsulfonyl)benzamide], 85 nM; to `COc1c(C#CC(C)(C)C)ccc(C(=O)NS(=O)(=O)c2ccccc2S(N)(=O)=O)c1C` [Example 68, 4-(3,3-Dimethylbut-1-ynyl)-3-methoxy-2-methyl-N-(2-sulfamoylphenylsulfonyl)-benzamide], 2000 nM. Under `COc1c(-c2cc3ccccc3o2)ccc(C(=O)NS(=O)(=O)c2ccccc2S(N)(=O)=O)c1C` [Example 69, 4-(Benzofuran-2-yl)-3-methoxy-2-methyl-N-(2-sulfamoylphenylsulfonyl)benzamide] stands 79 nM; under `NS(=O)(=O)c1ccccc1S(=O)(=O)NC(=O)c1ccc(C#Cc2cccnc2)cc1` [Example 70, 4-(Pyridin-3-ylethynyl)-N-(2-sulfamoylphenylsulfonyl)benzamide], 320 nM.

In turn, `NS(=O)(=O)c1ccccc1S(=O)(=O)NC(=O)c1ccc(C#Cc2ccccn2)cc1` [Example 71, 4-(Pyridin-2-ylethynyl)-N-(2-sulfamoylphenylsulfonyl)benzamide] registered a half-inhibitory concentration (IC50) of 1000 nM.
